System: Acyl-CoA synthetase activity in rat liver microsomes
Assay: Synthesis of CoA derivatives in rat liver microsomes (LCMS)
Settings: 1 mM substrate, 30 min sample vs 0 min
Experimental: Prior to the experiment a 1 mM working stock was created in primary hepatocyte media which was used to create the final dilution series of 0 (vehicle), 0.3, 1, 3, 10, and 30 μM. The final concentration of DMSO in all samples was <1%.
For initial validation of ACS activity using palmitate, 14C-palmitate was added (0.5 μCi/ml). Each sample was equilibrated at 37° C. while shaking for 10 min before the reaction was initiated by the addition of 0.04 mg of rat microsomal preparation (ThermoFisher Scientific. Cat #RTM-CPL, Lot #RT060-A) followed by incubation for 1, 3, 10, or 30 mins. Time 0 sample with no added microsomes was used as a control. The reaction was stopped by immediately placing the reaction tube on ice followed by the rapid addition of the reaction mixture to 2.25 ml ice-cold isopropanol/heptane/2M-sulfuric acid (40:10:1, vol/vol) in a 5 ml glass vial. […] For studies that involved measurement of 14C Palmitoyl-CoA formation, 200 μl of the lower aqueous phase was added to the 5 ml of scintillation fluid and the number of DPMs were determined by liquid scintillation counting for 5 minutes using a LS6500 Liquid Scintillation Counter (Beckman Coulter). […]
The reaction products were ionized by electrospray ion source (ESI) in positive mode. […] The resulting mass spectra were analyzed using the Xcalibur 2.1 Qualitative software package. […]

CC(C)(CCCc1ccc(CCCC(C)(C)C(=O)SCCNC(=O)CCNC(=O)[C@H](O)C(C)(C)COP(=O)(O)OP(=O)(O)OC[C@H]2O[C@@H](n3cnc4c(N)ncnc43)[C@H](O)[C@@H]2OP(=O)(O)O)cc1)C(=O)O [III-1-CoA, 5-[4-(4-Carboxy-4-methylpentyl)-phenyl]-2,2-dimethylpentanoic acid Coenzyme A ester]
formation of the CoA derivative, detection by LCMS: could not be confirmed using fragmentation analysis
